# In patent publication US9028856B2, “Synergistic pesticide compositions” (priority 2008, dated 2015):
# Assays:
# [1] = test system: malaria mosquito (Anopheles gambiae); assay: Five-minute exposure bioassay, WHO Adult Mosquito Susceptibility Test Kit, treated filter paper; type: in vivo; details: for KT 50 / KT 95 / % knock down after 10′ / % knock down after 15′ / % knock down after 20′ / % knock down after 25′ / % knock down after 30′ / % knock down after 45′ / % knock down after 60′ / % mortality 1 d: Table 80, filter paper (mg/m^2); for % mortality 1 d: mortality 24 hours post exposure; for % knock down after 5′: Table 80, technical sample on filter paper (mg/m^2)
# Protocol: The bioassays were carried out using the WHO Adult Mosquito Susceptibility Test Kit, (WHO/VBC 81.805, 1981) with plastic cylinders (4.5 cm diameter, 12 cm height). All bioassays were done using preferably female sugar fed Anopheles gambiae mosquitoes. Knock down was recorded after at 5, 10, 15, 20, 25, 30, 45 and 60 minutes, when the mosquitoes were supplied with a 5% sugar water source for 24 hours. Mortality was recorded 24 hours post exposure. Each test consisted of three replicates from which the mean values were calculated. The insecticides (all technical grades) were applied as 2 ml acetone solutions onto filter papers (12 cm×15 cm).
# [2] = test system: tropical house mosquito Culex quinquefasciatus (adults, 3 days old); assay: Efficacy of formulations on surfaces (glazed/unglazed tiles, plywood), ten 3 day old mosquitoes, 3 min exposure; type: in vivo; details: for % KD and Mortality: in acetone on glazed tiles, Table 84; for efficacy enhancement of the insecticide by the additive (summary in words): Culex quinquefasciatus, 3 min exposure, mostly 0.1% bendiocarb + 1% additive on glazed tiles, details as worded
# Protocol: The ingredients were diluted in acetone to give a concentration which corresponds to the desired quantity of a.i./m^2. A 1 ml quantity of the solution was applied by pipette onto the 15 cm×15 cm surfaces without treating the outer edge of 1 cm.
# (§1) Ten 3 day old Culex quinquefasciatus mosquitoes were exposed to each treatment for 3 minutes under a perforated petri dish, and then a clean untreated white paper index card was moved between treated surface and petri dish. A water-soaked cotton pad was applied immediately after.
# Each test consisted of three replicates (three batches of ten mosquitoes were exposed for three minutes to the same surface, each one hour later), of which the mean values are calculated.
# The test insects were Culex quinquefasciatus (adults, 3 days old). The compositions were evaluated for their ability to provide effective knock down after 3, 9, 15, and 30 minutes, 1, 2, 3, 4 and 24 hours (mortality). The experiments were performed in triplicate on glazed tile, but not repeated on wood.
# Test Insects are Culex quinquefasciatus (adults, 3 days old). The Application provides the technical compounds were dissolved in acetone and applied as 1 ml solutions onto glazed tiles (15 cm×15 cm). An evaluation is provided at knock down after 3, 9, 15, and 30 minutes, 1, 2, 3, 4 and 24 hours (mortality). There are 3 replicates.
# Test Insects: Culex quinquefasciatus (adults, 3 days old)
# Application: The technical compounds were dissolved in acetone and applied as 1 ml solutions onto glazed tiles (15 cm×15 cm).
# Evaluation: Knock down after 3, 9, 15, and 30 minutes, 1, 2, 3, 4 and 24 hours (mortality) […]
# Application: The active ingredients were applied as 1 ml acetone solutions onto glazed tiles (15 cm×15 cm) […]
# as §1, with “For the mosquitoes, the USDA Petri Dish Method is used. Ten” for “Ten”, “are” for “were”, “dish” for “dish,”, “is” for “was”, “after. […]” for “after.”
Structure (SMILES),KT 50 [1],KT 95 [1],% knock down after 10′ [1],% knock down after 15′ [1],% knock down after 20′ [1],% knock down after 25′ [1],% knock down after 30′ [1],% knock down after 45′ [1],% knock down after 60′ [1],% mortality 1 d [1],% knock down after 5′ [1],further results
CNC(=O)Oc1cccc2c1OC(C)(C)O2 [40 mg bendiocarb],12 min,>60 min,50%,56%,68%,74%,76%,81%,85%,94%,16%,
CC1(C)[C@H](C(=O)O[C@H](C#N)c2cccc(Oc3ccccc3)c2)[C@@H]1C=C(Br)Br [5 mg DTM],>60 min,>60 min,6%,4%,6%,6%,7%,15%,19%,13%,6%,
CC1(C)C(C=C(Br)Br)C1C(=O)OC(C#N)c1cccc(Oc2ccccc2)c1 (centres unmarked) [20 mg DTM],21 min,>60 min,23%,39%,45%,52%,66%,79%,86%,75%,9%,
CC1(C)[C@H](C(=O)O[C@H](C#N)c2cccc(Oc3ccccc3)c2)[C@@H]1C=C(Br)Br [40 mg DTM],10 min,40 min,53%,66%,76%,92%,97%,100%,100%,83%,22%,
CC1(C)CC(O)CC(C)(C)N1,,,,,,,,,,,,% KD and Mortality ([2]; 3′): 0%; % KD and Mortality ([2]; 9′): 0%; % KD and Mortality ([2]; 15′): 0%; % KD and Mortality ([2]; 30′): 0%; % KD and Mortality ([2]; 1 h): 0%; % KD and Mortality ([2]; 2 h): 0%; % KD and Mortality ([2]; 3 h): 0%; % KD and Mortality ([2]; 4 h): 0%; % KD and Mortality ([2]; 24 h (mortality)): 3%
CNC(=O)Oc1cccc2c1OC(C)(C)O2 [10 mg Bendiocarb],>60 min,>60 min,2%,2%,27%,2%,2%,2%,2%,9%,2%,
CNC(=O)Oc1cccc2c1OC(C)(C)O2 [20 mg Bendiocarb],>60 min,>60 min,6%,4%,6%,13%,13%,20%,21%,27%,3%,
CCCCCCCCON1C(C)(C)CC(OC(=O)CCCCCCCCC(=O)OC2CC(C)(C)N(OCCCCCCCC)C(C)(C)C2)CC1(C)C,,,,,,,,,,,,% KD and Mortality ([2]; 3′): 3%; % KD and Mortality ([2]; 9′): 3%; % KD and Mortality ([2]; 15′): 3%; % KD and Mortality ([2]; 30′): 3%; % KD and Mortality ([2]; 1 h): 3%; % KD and Mortality ([2]; 2 h): 3%; % KD and Mortality ([2]; 3 h): 3%; % KD and Mortality ([2]; 4 h): 3%; % KD and Mortality ([2]; 24 h (mortality)): 7%
CC1(C)[C@H](C(=O)O[C@H](C#N)c2cccc(Oc3ccccc3)c2)[C@@H]1C=C(Br)Br [10 mg DTM],>60 min,>60 min,2%,2%,2%,5%,9%,18%,26%,17%,0%,
"CN1C(C)(C)CC(O)CC1(C)C [1% 1,2,2,6,6-Pentamethyl-4-piperidinol]",,,,,,,,,,,,% KD and Mortality ([2]; 3′): 0%; % KD and Mortality ([2]; 9′): 0%; % KD and Mortality ([2]; 15′): 0%; % KD and Mortality ([2]; 30′): 0%; % KD and Mortality ([2]; 1 h): 0%; % KD and Mortality ([2]; 2 h): 0%; % KD and Mortality ([2]; 3 h): 0%; % KD and Mortality ([2]; 4 h): 0%; % KD and Mortality ([2]; 24 h (mortality)): 0%
O=C1O[C@H]([C@@H](O)CO)C(O)=C1O [ascorbic acid],,,,,,,,,,,,efficacy enhancement of the insecticide by the additive (summary in words) [2]: complete decrease of efficacy
CNC(=O)Oc1cccc2c1OC(C)(C)O2 [5 mg Bendiocarb],>60 min,>60 min,6%,6%,6%,6%,6%,6%,6%,12%,6%,
"COC(=O)CCCCCCCCC(=O)OC [Derivative 1, Dimethyl sebacate]",,,,,,,,,,,,efficacy enhancement of the insecticide by the additive (summary in words) [2]: acted weaker in both tests; efficacy enhancement of the insecticide by the additive (summary in words) ([2]; listed as Dimethyl sebacate): no efficacy enhancement
"CN1C(C)(C)CC(O)CC1(C)C [Derivative 8, 1,2,2,6,6-Pentamethyl-4-piperidinol]",,,,,,,,,,,,"efficacy enhancement of the insecticide by the additive (summary in words) [2]: acted weaker in both tests; efficacy enhancement of the insecticide by the additive (summary in words) ([2]; listed as 1,2,2,6,6-Pentamethyl-4-piperidinol): no efficacy enhancement"
"O=C(CCCCCCCCC(=O)ON1C(=O)CCC1=O)ON1C(=O)CCC1=O [Derivative 4, Sebacic acid-bis-(N-succinimidyl)ester]",,,,,,,,,,,,efficacy enhancement of the insecticide by the additive (summary in words) [2]: weaker as Compound A in both tests; efficacy enhancement of the insecticide by the additive (summary in words) ([2]; listed as Sebacic acid-bis-(N-succinimidyl)ester): equivalent to Compound A
